According to patent publication US10106538B2, “Inhibitors of protein kinases” (PRINCETON DRUG DISCOVERY INC, priority 2015, dated 2018):

Experiments:
Assay in all cases: Off-chip Mobility Shift Assay (MSA) kinase inhibition
Assay type in all cases: biochemical
MET = target: T1, MET (Homo sapiens, UniProt P08581); settings: inhibitor concentration 0.1 μM
T1 construct: purchased Carna Biosciences
Experimental: (§1) Off-chip Mobility Shift Assay (MSA) by Cama Biosciences, Inc (Natick, Mass.) a used for measuring the kinase activity and inhibition. • 1) The 5 μL of x4 compound solution, 5 μL of x4 Substrate/ATP/Metal solution, and 10 μL of x2 kinase solution were prepared with assay buffer (20 mM HEPES, 0.01% Triton X100, 2 mM DTT, pH 7.5) and mixed and incubated in a well of polypropylene 384 well microplate for 1 or 5 hour(s)* at room temperature.

JAK1 = target: T2, JAK1 (Homo sapiens, UniProt P23458); settings: for inhibition at 0.1 µM: inhibitor concentration 0.1 μM
T2 construct: purchased Carna Biosciences
Experimental: as §1

AKT1 = target: T3, AKT1 (Homo sapiens, UniProt P31749); settings: inhibitor concentration 0.1 μM
T3 construct: purchased Carna Biosciences
Experimental: as §1

HER4 = target: T4, HER4 (Homo sapiens, UniProt Q15303); settings: inhibitor concentration 0.1 μM
T4 construct: purchased Carna Biosciences
Experimental: as §1

HER2 = target: T5, HER2 (Homo sapiens, UniProt P04626); settings: inhibitor concentration 0.1 μM
T5 construct: purchased Carna Biosciences
Experimental: as §1

BTK = target: T6, BTK (Homo sapiens, UniProt Q06187); settings: inhibitor concentration 0.1 μM
T6 construct: purchased Carna Biosciences
Experimental: as §1

LYNb = target: T7, LYNb (Homo sapiens, UniProt P07948); settings: inhibitor concentration 0.1 μM
T7 construct: purchased Carna Biosciences
Experimental: as §1

ABL(T315I) = target: T8, ABL(T315I) (Homo sapiens, UniProt P00519, T315I); settings: inhibitor concentration 0.1 μM
T8 construct: purchased Carna Biosciences
Experimental: as §1

JAK2 = target: T9, JAK2 (Homo sapiens, UniProt O60674); settings: for inhibition at 0.1 µM: inhibitor concentration 0.1 μM
T9 construct: purchased Carna Biosciences
T9 sequence (O60674 whole entry): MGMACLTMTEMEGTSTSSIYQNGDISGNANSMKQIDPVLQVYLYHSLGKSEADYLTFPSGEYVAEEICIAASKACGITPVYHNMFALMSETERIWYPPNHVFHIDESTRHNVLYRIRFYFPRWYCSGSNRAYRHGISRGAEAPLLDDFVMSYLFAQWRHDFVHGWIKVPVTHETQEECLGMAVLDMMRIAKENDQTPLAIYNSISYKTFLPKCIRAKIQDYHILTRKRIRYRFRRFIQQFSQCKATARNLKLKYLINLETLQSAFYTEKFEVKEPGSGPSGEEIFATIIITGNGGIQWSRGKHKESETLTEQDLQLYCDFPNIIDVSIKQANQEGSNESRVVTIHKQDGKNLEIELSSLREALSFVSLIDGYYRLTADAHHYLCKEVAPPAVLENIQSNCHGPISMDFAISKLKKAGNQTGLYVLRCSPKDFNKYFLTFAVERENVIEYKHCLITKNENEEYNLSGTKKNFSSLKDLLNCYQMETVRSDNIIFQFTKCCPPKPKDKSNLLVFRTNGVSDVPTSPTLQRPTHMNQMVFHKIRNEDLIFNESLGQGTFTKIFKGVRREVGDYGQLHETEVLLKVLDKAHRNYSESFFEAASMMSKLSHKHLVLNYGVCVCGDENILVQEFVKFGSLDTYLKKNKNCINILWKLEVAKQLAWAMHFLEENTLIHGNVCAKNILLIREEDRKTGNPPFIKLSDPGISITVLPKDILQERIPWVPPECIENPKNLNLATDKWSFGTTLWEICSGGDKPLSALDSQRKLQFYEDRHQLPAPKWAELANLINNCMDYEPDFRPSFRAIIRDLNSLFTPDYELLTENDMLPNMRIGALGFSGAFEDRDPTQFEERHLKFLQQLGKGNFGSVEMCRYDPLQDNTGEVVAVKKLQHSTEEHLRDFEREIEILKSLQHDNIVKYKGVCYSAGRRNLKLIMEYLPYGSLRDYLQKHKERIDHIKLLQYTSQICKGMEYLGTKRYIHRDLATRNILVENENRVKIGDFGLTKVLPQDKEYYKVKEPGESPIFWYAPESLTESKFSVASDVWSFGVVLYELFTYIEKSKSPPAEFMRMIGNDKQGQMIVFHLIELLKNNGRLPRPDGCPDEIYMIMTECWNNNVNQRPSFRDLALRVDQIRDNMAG
Experimental: as §1

Erk5 = target: T10, Erk5 (Homo sapiens, UniProt Q13164); settings: inhibitor concentration 0.1 μM
T10 construct: purchased Carna Biosciences
Experimental: as §1

PIM3 = target: T11, PIM3 (Homo sapiens, UniProt Q86V86); settings: inhibitor concentration 0.1 μM
T11 construct: purchased Carna Biosciences
Experimental: as §1

BRK = target: T12, BRK (Homo sapiens, UniProt Q13882); settings: for inhibition at 0.1 µM: inhibitor concentration 0.1 μM
T12 construct: purchased Carna Biosciences
Experimental: as §1

KDR = target: T13, KDR (Homo sapiens, UniProt P35968); settings: inhibitor concentration 0.1 μM
T13 construct: purchased Carna Biosciences
Experimental: as §1

JNK3 = target: T14, JNK3 (Homo sapiens, UniProt P53779); settings: inhibitor concentration 0.1 μM
T14 construct: purchased Carna Biosciences, Inc
Experimental: as §1

PDGFRβ = target: T15, PDGFRβ (Homo sapiens, UniProt P09619); settings: for inhibition at 0.1 µM: inhibitor concentration 0.1 μM
T15 construct: purchased Carna Biosciences
T15 sequence (P09619 33-1106): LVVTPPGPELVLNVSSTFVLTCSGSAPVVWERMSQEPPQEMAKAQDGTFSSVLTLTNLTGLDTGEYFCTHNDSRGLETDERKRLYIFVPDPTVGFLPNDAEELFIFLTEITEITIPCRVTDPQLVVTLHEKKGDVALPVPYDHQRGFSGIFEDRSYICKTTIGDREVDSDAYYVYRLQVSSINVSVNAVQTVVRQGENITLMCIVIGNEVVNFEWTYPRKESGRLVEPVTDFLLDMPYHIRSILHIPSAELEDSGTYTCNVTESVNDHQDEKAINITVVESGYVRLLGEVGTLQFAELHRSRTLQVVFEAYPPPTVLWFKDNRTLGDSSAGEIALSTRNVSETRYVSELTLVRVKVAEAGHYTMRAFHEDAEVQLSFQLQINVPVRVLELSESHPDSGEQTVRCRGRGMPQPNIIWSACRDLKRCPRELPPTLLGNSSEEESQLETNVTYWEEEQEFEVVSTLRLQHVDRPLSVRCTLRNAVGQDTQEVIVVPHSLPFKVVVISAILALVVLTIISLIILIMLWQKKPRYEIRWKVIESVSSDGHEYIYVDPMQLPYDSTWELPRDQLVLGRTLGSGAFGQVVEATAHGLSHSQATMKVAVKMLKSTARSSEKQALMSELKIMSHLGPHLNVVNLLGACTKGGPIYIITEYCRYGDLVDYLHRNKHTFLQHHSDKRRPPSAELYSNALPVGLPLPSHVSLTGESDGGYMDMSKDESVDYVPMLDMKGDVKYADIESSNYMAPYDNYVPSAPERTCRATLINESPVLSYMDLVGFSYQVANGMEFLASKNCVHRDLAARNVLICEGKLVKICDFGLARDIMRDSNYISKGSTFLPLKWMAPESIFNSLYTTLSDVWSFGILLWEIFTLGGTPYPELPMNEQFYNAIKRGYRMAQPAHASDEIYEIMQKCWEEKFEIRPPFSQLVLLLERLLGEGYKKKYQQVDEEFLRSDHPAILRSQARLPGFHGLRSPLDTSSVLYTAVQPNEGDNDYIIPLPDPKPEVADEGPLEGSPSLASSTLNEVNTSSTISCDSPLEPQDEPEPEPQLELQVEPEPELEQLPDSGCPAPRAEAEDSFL
Experimental: as §1

RAF1 = target: T16, RAF1 (Homo sapiens, UniProt P04049); settings: for inhibition at 0.1 µM: inhibitor concentration 0.1 μM
T16 construct: purchased Carna Biosciences
T16 sequence (P04049 whole entry): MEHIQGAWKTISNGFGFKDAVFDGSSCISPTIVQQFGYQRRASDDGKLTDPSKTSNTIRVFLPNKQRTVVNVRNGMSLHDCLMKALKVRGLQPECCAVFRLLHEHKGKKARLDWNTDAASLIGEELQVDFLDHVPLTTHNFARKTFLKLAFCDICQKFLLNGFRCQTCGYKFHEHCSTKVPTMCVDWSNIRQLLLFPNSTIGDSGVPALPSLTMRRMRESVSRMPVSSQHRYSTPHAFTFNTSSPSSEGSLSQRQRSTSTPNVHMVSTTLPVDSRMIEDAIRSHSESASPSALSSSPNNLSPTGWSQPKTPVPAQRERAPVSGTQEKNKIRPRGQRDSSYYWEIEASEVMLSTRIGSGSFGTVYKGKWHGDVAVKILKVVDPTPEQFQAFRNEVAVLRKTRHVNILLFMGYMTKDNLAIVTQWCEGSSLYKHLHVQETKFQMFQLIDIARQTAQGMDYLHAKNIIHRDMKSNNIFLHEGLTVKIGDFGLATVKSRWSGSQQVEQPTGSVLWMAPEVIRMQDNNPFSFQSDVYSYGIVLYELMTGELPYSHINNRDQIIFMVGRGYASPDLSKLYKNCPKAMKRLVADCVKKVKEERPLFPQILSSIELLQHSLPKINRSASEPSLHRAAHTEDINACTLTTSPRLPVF
Experimental: as §1

MAP2K1 = target: T17, MAP2K1 (Homo sapiens, UniProt Q02750); settings: inhibitor concentration 0.1 μM
T17 construct: purchased Carna Biosciences
Experimental: as §1

MNK2 = target: T18, MNK2 (Homo sapiens, UniProt Q9HBH9); settings: inhibitor concentration 0.1 μM
T18 construct: purchased Carna Biosciences
Experimental: as §1

FGFR3 = target: T19, FGFR3 (Homo sapiens, UniProt P22607); settings: inhibitor concentration 0.1 μM
T19 construct: purchased Carna Biosciences
Experimental: as §1

RET = target: T20, RET (Homo sapiens, UniProt P07949); settings: inhibitor concentration 0.1 μM
T20 construct: purchased Carna Biosciences
Experimental: as §1

FGFR2 = target: T21, FGFR2 (Homo sapiens, UniProt P21802); settings: inhibitor concentration 0.1 μM
T21 construct: purchased Carna Biosciences
Experimental: as §1

PIM2 = target: T22, PIM2 (Homo sapiens, UniProt Q9P1W9); settings: inhibitor concentration 0.1 μM
T22 construct: purchased Carna Biosciences
Experimental: as §1

AurA = target: T23, AurA (Homo sapiens, UniProt O14965); settings: inhibitor concentration 0.1 μM
T23 construct: purchased Carna Biosciences
T23 sequence (O14965 1-403): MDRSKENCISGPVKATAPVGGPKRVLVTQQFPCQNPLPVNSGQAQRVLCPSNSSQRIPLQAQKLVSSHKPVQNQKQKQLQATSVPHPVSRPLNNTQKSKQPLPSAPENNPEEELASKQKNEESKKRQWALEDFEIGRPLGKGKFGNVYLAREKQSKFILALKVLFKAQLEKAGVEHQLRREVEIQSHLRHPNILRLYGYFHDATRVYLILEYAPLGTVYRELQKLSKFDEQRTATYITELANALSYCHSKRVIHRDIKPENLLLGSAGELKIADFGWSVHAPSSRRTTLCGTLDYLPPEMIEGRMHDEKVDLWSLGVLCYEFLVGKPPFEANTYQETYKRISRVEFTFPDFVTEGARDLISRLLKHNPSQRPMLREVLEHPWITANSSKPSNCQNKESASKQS
Experimental: as §1

MNK1 = target: T24, MNK1 (Homo sapiens, UniProt Q9BUB5); settings: inhibitor concentration 0.1 μM
T24 construct: purchased Carna Biosciences
Experimental: as §1

KIT(D816V) = target: T25, KIT(D816V) (Homo sapiens, UniProt P10721, D816V); settings: for inhibition at 0.1 µM: inhibitor concentration 0.1 μM
T25 construct: purchased Carna Biosciences
T25 sequence (P10721 26-976 D816V): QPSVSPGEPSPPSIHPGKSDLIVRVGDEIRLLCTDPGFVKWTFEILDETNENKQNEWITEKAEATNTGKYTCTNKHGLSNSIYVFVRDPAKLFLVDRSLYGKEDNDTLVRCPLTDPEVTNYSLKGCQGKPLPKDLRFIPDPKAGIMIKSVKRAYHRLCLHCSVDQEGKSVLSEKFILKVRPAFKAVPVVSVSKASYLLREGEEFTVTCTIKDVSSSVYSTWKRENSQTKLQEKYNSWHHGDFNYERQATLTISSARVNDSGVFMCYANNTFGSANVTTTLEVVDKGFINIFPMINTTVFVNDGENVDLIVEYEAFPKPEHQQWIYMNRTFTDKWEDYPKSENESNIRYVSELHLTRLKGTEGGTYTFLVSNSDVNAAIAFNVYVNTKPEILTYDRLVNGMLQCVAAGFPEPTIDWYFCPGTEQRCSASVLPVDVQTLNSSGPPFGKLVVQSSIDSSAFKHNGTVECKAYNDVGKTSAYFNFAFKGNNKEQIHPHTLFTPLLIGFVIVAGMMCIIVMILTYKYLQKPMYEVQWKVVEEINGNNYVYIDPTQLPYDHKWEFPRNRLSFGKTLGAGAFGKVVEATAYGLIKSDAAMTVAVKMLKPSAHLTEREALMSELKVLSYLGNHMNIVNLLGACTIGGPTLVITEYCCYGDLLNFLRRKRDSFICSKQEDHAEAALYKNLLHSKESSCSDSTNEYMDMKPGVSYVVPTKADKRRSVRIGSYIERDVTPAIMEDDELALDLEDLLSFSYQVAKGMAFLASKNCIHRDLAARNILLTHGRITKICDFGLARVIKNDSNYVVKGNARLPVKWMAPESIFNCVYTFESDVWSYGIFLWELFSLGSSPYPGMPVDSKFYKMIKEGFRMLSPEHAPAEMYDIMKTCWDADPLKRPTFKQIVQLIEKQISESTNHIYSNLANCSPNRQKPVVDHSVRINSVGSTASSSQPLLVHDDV
Experimental: as §1

PDGFRα = target: T26, PDGFRα (Homo sapiens, UniProt P16234); settings: for inhibition at 0.1 µM: inhibitor concentration 0.1 μM
T26 construct: purchased Carna Biosciences
T26 sequence (P16234 24-1089): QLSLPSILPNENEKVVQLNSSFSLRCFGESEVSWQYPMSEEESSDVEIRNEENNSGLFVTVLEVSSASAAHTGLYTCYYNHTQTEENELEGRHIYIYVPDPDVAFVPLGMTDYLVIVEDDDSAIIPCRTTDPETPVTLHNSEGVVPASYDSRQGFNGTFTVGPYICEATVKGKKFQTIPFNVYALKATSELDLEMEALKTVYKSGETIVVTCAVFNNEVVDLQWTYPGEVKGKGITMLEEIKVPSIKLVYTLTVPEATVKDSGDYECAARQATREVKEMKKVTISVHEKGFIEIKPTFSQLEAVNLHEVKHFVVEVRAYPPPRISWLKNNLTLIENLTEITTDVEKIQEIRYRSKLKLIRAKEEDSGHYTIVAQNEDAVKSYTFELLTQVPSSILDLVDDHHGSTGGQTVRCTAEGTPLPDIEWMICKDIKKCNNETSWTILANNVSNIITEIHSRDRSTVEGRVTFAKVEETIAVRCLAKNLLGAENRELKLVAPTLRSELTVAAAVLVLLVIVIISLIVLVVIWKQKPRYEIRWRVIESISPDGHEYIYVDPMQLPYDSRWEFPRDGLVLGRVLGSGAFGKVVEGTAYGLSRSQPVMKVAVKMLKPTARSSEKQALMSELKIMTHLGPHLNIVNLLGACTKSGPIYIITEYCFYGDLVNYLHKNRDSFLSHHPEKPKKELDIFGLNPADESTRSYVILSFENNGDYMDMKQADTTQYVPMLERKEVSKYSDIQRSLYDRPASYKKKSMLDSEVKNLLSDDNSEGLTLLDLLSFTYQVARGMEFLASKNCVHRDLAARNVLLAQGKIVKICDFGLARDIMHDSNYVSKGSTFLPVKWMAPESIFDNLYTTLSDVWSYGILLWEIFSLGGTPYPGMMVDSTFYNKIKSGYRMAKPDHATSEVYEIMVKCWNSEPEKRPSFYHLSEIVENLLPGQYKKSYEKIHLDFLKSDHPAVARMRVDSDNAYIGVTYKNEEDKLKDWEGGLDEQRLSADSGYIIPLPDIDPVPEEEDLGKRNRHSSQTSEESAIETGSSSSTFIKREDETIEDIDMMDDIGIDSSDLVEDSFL
Experimental: as §1

BRAF = target: T27, BRAF (Homo sapiens, UniProt P15056); settings: inhibitor concentration 0.01 μM; 0.01 µM
T27 construct: purchased Carna Biosciences
Experimental: as §1

[1] = inhibitor concentration 0.01 μM, 0.01 µM

| SMILES | inhibition at 0.1 µM (MET) [%] | inhibition at 0.1 µM (JAK1) [%] | inhibition at 0.1 µM (AKT1) [%] | inhibition at 0.1 µM (HER4) [%] | inhibition at 0.1 µM (HER2) [%] | inhibition at 0.1 µM (BTK) [%] | inhibition at 0.1 µM (LYNb) [%] | inhibition at 0.1 µM (ABL(T315I)) [%] | inhibition at 0.1 µM (JAK2) [%] | inhibition at 0.1 µM (Erk5) [%] | inhibition at 0.1 µM (PIM3) [%] | inhibition at 0.1 µM (BRK) [%] | inhibition at 0.1 µM (KDR) [%] | inhibition at 0.1 µM (JNK3) [%] | inhibition at 0.1 µM (PDGFRβ) [%] | inhibition at 0.1 µM (RAF1) [%] | inhibition at 0.1 µM (MAP2K1) [%] | inhibition at 0.1 µM (MNK2) [%] | inhibition at 0.1 µM (FGFR3) [%] | inhibition at 0.1 µM (RET) [%] | further results |
| --- | --- | --- | --- | --- | --- | --- | --- | --- | --- | --- | --- | --- | --- | --- | --- | --- | --- | --- | --- | --- | --- |
| CC(O)CS(=O)(=O)Nc1ccc(F)c(C(=O)c2c[nH]c3ncc(-c4ccc(Cl)cc4)cc23)c1F (stereo not drawn) [200-115] | < 30 | < 30 | < 30 | < 30 | < 30 | < 30 | < 30 | < 30 | < 30 | < 30 | < 30 | > 30 | < 30 | < 30 | < 30 | > 30 | < 30 | < 30 | < 30 | < 30 | inhibition at 0.1 µM (FGFR2): < 30%; inhibition at 0.1 µM (PIM2): < 30%; inhibition at 0.1 µM (AurA): < 30%; inhibition at 0.1 µM (MNK1): < 30%; inhibition at 0.1 µM (KIT(D816V)): < 30%; inhibition at 0.1 µM (PDGFRα): > 30% |
| C/C=C/S(=O)(=O)Nc1ccc(F)c(C(=O)c2c[nH]c3ncc(-c4ccc(Cl)cc4)cc23)c1F [200-93b] | – | – | – | – | – | – | – | – | – | – | – | – | – | – | – | – | – | – | – | – | JAK1 inhibition (JAK1; [1]): <20%; BRAF inhibition (BRAF): <20%; JAK2 inhibition (JAK2; [1]): <20%; BRK inhibition (BRK; [1]): >20%; PDGFRβ inhibition (PDGFRβ; [1]): <20%; RAF1 inhibition (RAF1; [1]): >20%; KIT(D816V) inhibition (KIT(D816V); [1]): <20%; PDGFRα inhibition (PDGFRα; inhibitor concentration 0.01 μM): >20% |
| CC(=O)CS(=O)(=O)Nc1ccc(F)c(C(=O)c2c[nH]c3ncc(-c4ccc(Cl)cc4)cc23)c1F [200-117] | < 30 | < 30 | < 30 | < 30 | < 30 | < 30 | > 30 | < 30 | < 30 | < 30 | < 30 | > 30 | < 30 | < 30 | < 30 | > 30 | < 30 | > 30 | < 30 | < 30 | inhibition at 0.1 µM (FGFR2): < 30%; inhibition at 0.1 µM (PIM2): < 30%; inhibition at 0.1 µM (AurA): < 30%; inhibition at 0.1 µM (MNK1): < 30%; inhibition at 0.1 µM (KIT(D816V)): < 30%; inhibition at 0.1 µM (PDGFRα): > 30% |
